In US4857507A, “Angiotensinogen analogs” (Abbott Laboratories, priority 1987, dated 1989) one finds IC50 data, which are given here for three substances.

For orientation: IC50 means the concentration needed to halve the response being measured. A higher IC50 goes with weaker potency.

The target in the assay is T1, human renal renin (Homo sapiens, UniProt P00797).
T1 construct: human renal renin, free from acid proteolytic activity; from tissue; host or cells: human kidney (from the word 'renal')
T1 sequence (P00797 67-406): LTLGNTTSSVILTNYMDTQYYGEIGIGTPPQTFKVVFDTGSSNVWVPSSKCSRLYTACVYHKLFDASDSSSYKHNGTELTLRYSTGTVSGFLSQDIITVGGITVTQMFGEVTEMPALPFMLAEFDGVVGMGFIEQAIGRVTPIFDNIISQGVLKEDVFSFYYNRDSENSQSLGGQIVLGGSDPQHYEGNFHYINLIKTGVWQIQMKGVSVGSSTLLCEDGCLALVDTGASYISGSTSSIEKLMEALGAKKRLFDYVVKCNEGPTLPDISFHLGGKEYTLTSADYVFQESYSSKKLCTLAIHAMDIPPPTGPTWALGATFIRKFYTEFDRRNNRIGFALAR
The assay is described as follows: inhibition of human renal renin in vitro, angiotensin I formed measured by radioimmunoassay. It counts as biochemical. Particulars: human renal renin with human renin substrate (angiotensinogen), 37° C., pH 6.0. How it is done:
At the end of the incubation, the amount of angiotensin I formed is measured by radioimmunoassay and the molor concentration required to cause 50% inhibition, expressed as the IC50, is calculated.
Substance “Boc-Phe-3-methyl-His Amide of (3S,4S)-1-(3-Methylbutylcarbonylamino)-3-hydroxy-4-amino-5-cyclohexylpentane [Example 52]” registered an IC50 of 15 nM.

The substance “Boc-Phe-His amide of (3S,4S)-4-amino-3-hydroxy-11-isoamylsulfonyl-6-methylheptane [Example 22]” returned a half-maximal inhibitory concentration (IC50) of 100 nM.

In turn, “Boc-Phe-dl-3-pyrazolylalanine Amide of (3S,4S)-1-(3-Methylbutylcarbonylamino)-3-hydroxy-4-amino-5-cyclohexylpentane [Example 58]” returned an IC50 of 6 nM.
